Kinase still bound, per cent of control data for two molecules are collected here from the kinase profiling compilation of Christmann-Franck et al. (2016).

Holding throughout (assay): KINOMEscan competition binding
Conditions in all cases: compound 10.0 µM

Assay [1] relates to MET (human), P08581 [M1250T].
In assay [2] the test system is PIK3CA (human), P42336 [H1047L].
Assay [3] relates to KIT (human), P10721 [A829P].
The subject of assay [4] is PIK3CA (human), P42336 [E542K].
Assay [5] deals with EGFR (human), P00533 [A750P; 747-749 del].
Assay [6] deals with ABL1 (human), P00519 [F317L].
Assay [7] relates to PIK3CA (human), P42336 [M1043I].
Chain of PIK3CA (human), P42336 [M1043I] (P42336 whole entry M1043I, looked up): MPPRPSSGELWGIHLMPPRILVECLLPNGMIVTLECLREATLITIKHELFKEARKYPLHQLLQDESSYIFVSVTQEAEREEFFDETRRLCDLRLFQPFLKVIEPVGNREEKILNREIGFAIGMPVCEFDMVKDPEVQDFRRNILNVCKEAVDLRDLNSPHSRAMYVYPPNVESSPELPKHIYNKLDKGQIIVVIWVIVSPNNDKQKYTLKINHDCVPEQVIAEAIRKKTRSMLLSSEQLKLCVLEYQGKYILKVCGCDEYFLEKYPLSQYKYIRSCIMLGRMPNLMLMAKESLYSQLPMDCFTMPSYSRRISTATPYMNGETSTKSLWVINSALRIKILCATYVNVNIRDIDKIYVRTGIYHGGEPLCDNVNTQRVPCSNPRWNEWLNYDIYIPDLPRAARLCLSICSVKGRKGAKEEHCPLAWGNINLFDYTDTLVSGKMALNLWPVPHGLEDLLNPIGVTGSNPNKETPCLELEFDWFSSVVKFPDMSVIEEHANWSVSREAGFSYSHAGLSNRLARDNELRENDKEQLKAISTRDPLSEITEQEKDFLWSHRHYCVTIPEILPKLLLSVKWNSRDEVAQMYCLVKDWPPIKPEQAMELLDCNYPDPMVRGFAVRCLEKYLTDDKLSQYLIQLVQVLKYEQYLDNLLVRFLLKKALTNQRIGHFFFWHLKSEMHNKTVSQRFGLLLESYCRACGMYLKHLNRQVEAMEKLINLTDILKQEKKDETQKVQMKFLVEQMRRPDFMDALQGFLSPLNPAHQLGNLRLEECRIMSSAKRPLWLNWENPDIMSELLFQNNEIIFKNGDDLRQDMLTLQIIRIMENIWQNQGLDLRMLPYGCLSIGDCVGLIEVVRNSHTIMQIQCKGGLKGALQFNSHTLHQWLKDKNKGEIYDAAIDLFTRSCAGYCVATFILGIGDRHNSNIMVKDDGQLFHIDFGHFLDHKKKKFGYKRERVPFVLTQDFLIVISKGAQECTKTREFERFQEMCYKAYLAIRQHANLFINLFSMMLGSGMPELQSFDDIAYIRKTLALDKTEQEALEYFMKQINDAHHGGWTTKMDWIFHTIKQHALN
Assay [8] relates to ABL1 (human), P00519 [F317I].
Assay [9] deals with EGFR (human), P00533 [L858R].
For assay [10], the system named is LRRK2 (human), Q5S007 [G2019S].
The subject of assay [11] is FGFR3 (human), P22607 [G697C].
Assay [12] relates to BMX (human), P51813 [V600E].
Chain of BMX (human), P51813 [V600E] (P51813 whole entry, looked up, stated change not applied): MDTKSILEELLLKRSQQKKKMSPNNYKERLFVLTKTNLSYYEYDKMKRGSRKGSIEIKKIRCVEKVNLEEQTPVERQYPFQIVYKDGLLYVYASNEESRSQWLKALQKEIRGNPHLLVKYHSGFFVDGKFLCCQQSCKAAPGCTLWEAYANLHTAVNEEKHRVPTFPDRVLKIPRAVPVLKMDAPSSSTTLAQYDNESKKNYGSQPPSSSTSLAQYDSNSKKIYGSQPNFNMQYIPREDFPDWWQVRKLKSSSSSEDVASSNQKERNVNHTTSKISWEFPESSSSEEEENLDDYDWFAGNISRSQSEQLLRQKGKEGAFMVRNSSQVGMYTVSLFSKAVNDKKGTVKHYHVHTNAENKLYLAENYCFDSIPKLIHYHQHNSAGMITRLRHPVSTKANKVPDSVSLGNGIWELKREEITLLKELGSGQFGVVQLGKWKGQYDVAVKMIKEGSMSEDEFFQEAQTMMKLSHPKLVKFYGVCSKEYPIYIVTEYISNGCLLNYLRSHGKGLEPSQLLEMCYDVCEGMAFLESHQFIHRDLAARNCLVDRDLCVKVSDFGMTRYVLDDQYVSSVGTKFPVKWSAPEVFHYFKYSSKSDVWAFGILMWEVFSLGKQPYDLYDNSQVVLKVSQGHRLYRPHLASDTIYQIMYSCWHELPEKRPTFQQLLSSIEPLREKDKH
The test system of assay [13] is RET (human), P07949 [V804L].
Chain of RET (human), P07949 [V804L] (P07949 whole entry V804L, looked up): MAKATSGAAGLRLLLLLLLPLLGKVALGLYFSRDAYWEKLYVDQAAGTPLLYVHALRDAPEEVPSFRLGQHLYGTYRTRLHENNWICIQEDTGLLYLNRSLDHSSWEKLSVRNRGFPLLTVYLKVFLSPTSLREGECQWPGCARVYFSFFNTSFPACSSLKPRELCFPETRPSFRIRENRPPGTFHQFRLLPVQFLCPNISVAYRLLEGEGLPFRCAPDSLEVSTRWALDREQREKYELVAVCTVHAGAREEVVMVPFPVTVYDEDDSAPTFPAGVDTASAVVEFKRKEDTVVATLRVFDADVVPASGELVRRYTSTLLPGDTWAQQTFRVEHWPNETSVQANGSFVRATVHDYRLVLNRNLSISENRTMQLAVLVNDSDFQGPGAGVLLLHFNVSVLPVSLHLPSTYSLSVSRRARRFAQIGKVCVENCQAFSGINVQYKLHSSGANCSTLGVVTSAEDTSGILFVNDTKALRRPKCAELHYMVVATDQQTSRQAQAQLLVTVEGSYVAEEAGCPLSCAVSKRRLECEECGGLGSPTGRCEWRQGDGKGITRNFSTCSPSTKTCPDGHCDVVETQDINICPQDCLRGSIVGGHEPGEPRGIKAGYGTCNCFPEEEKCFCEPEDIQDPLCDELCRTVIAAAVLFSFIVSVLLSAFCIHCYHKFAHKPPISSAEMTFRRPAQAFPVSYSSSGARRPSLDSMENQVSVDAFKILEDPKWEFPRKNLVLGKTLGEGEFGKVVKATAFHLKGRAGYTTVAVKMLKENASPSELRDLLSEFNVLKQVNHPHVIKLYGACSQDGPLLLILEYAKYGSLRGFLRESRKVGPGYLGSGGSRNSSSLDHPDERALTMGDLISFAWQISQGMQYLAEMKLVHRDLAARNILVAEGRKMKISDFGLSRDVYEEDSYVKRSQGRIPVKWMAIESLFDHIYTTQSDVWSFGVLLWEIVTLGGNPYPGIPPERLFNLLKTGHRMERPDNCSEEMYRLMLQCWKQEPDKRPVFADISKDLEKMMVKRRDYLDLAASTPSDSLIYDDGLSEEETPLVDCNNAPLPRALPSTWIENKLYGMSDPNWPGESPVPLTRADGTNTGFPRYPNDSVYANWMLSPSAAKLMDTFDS
Assay [14] deals with EGFR (human), P00533 [G719C].
In assay [15] the test system is FLT3 (human), P36888 [D835Y].

Chain of PIK3CA (human), P42336 [E542K] (P42336 whole entry E542K, looked up): as the sequence (P42336 whole entry M1043I, looked up) above, with E542K, I1043M counted along it
Chain of FGFR3 (human), P22607 [G697C] (P22607 whole entry G697C, looked up): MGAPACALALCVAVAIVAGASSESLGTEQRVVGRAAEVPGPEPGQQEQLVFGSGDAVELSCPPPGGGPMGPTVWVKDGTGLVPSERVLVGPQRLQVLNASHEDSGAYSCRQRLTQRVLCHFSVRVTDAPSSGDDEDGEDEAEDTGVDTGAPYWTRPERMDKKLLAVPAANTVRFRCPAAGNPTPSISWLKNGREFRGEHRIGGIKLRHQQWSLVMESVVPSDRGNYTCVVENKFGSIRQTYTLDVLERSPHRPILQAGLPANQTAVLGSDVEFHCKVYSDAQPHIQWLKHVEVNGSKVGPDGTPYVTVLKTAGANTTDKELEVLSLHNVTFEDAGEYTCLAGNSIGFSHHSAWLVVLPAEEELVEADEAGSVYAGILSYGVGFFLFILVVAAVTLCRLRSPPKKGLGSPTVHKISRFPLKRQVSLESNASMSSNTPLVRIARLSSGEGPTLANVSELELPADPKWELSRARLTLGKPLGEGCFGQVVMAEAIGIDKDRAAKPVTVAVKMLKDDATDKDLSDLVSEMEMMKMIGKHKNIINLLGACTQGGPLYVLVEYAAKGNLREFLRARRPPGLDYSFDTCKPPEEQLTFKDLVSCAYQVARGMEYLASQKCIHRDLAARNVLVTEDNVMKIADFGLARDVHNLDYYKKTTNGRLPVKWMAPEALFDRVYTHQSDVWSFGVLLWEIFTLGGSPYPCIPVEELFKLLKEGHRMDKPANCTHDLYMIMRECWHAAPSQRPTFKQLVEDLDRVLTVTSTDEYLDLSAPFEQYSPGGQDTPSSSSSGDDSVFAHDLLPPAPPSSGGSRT
Chain of KIT (human), P10721 [A829P] (P10721 whole entry A829P, looked up): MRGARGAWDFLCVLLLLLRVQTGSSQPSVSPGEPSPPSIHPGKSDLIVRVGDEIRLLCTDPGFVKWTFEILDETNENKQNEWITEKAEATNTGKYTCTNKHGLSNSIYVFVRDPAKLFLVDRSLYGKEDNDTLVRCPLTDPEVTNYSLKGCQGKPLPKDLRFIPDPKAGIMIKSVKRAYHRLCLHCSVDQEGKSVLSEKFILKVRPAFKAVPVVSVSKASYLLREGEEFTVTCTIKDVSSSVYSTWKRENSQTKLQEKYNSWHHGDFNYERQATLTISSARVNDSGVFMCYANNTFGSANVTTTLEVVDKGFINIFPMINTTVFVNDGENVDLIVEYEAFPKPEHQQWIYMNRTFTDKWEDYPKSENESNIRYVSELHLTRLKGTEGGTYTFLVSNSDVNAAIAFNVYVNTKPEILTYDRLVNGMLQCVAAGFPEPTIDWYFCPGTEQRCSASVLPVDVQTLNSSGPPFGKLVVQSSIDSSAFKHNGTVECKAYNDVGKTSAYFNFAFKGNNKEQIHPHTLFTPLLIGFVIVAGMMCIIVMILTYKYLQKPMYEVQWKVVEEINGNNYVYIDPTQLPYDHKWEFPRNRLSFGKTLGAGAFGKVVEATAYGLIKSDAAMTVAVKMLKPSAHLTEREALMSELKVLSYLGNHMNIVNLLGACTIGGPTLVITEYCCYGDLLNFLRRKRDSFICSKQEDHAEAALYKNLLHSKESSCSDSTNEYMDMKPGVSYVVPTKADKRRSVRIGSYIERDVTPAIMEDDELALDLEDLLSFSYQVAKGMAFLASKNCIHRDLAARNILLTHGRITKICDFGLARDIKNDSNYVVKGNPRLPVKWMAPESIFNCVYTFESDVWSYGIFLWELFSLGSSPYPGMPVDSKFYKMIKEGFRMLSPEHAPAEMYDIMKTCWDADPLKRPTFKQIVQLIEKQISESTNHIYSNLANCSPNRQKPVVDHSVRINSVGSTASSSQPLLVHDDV
Chain of PIK3CA (human), P42336 [H1047L] (P42336 whole entry H1047L, looked up): as the sequence (P42336 whole entry M1043I, looked up) above, with I1043M, H1047L counted along it

Consider `N#CCNC(=O)c1ccc(-c2ccnc(Nc3ccc(N4CCOCC4)cc3)n2)cc1`, for which the kinase still bound, per cent of control in assay [1] is 100%; in [2], 100%; in assay [3], 72%; in assay [4], 100%; in assay [5] it was 100%; in [6], 100%. Also, the kinase still bound, per cent of control in [7] turned out to be 100%; in [8], 55%; in assay [9] it was 100%; in assay [10], 41%; in assay [11], 79%; in [12], 56%. In addition, the kinase still bound, per cent of control in assay [13] is 64%.

Turning to `COc1cc2ncn(-c3cc(OCc4ccccc4C(F)(F)F)c(C(N)=O)s3)c2cc1OC`, the kinase still bound, per cent of control was 31% in assay [1]; 73% in [2]; 94% in [14]; 57% in assay [3]; 100% in assay [4]; 50% in [5]. Moreover, the kinase still bound, per cent of control in [6] worked out at 70%; in assay [15], 26%; in assay [8] it was 100%; in assay [9], 47%; in assay [10] it was 60%; in assay [11], 26%. The values for the kinase still bound, per cent of control in [12] and in assay [13] were 92% and 24%, respectively.
